Measured values taken from US7728036B2, “Methods for delivery of catecholic butanes for treatment of tumors” (priority 2003, dated 2010).

Experiments:
[1] = Systemic tissue distribution of 3H-M4N 3 hours after single i.p. or i.v. injection; format: in vivo, mice
Experimental: M4N Tissue Distribution Studies Using ^3H-M4N. […] The insoluble pellet was then further extracted with EtOH.
At 3 hours post-injection, the organs and blood were harvested and weighed, and the M4N was extracted.

[2] = Tissue distribution after short-term oral feeding of M4N (HPLC); format: in vivo, mice
Experimental: Tissue Distribution and Toxicity Analysis Following Short-Term and Long-Term Oral Feeding. For short-term feeding experiments, 30 mg of M4N dissolved in 300 μL castor oil was orally administered to each of 6 mice. At 2 h, 4 h, and 8 h post-administration time points, 2 mice were sacrificed, the organs and blood were collected, and the M4N extracted and quantitated as described below. In long-term feeding experiments, mice were fed food balls consisting of M4N dissolved in corn oil and Basal Mix (Harlan Teklad; Madison, Wis.; Cat. # TD 02273) for 14 weeks. Food balls weighed 9 g and contained 242 mg M4N each. Two mice, one male and one female, were reserved for long-term drug retention studies; and fourteen mice, both male and female, were used for long-term drug toxicity studies. At the end of feeding, mice were sacrificed, the organs and blood were collected, and the M4N extracted and quantitated as described below.
M4N Extraction and HPLC Analysis Following Oral Feeding. Organs and blood were harvested from M4N-fed mice, then frozen overnight at −80° C. Prior to freezing, gastro-intestinal organs (stomach, small intestine, colon) were cut open longitudinally and washed thoroughly with PBS to remove any contents. The following day, organs were cut into small pieces on dry ice with a razor blade, dried in a Speed-vac, then crushed into a rough powder using a mortar and pestle. Samples were extracted overnight in 100% ethanol with shaking. Samples were centrifuged and the supernatant collected. Pellets were extracted two more times in 100% ethanol overnight with shaking. The pooled ethanol extracts were evaporated on bench top for several days, then re-extracted with ethyl acetate, and dried completely in a Speed-vac. The dried samples were then analyzed quantitatively by HPLC and M4N was identified by mass spectroscopy using pure M4N as a standard.
In samples from short-term fed mice, dialysis was performed to further purify M4N from the tissue extracts. Dried ethanol extracts were redissolved in 1.5 mL 100% EtOH and centrifuged for 5 min. The supernatant was collected and the pellet was resuspended in 0.4 mL ethanol and centrifuged again. The supernatant was pooled with the previous supernatant, then dialyzed overnight against 150 mL 100% EtOH. The dialysates were dried on bench top and in a speed-vac, then analyzed by HPLC.
HPLC Quantitation of M4N. Samples from a single mouse at each time point were sent to KP Pharmaceuticals (Bloomington, Ind.) for HPLC analysis. HPLC conditions were described as follows: 35%:0.1% TFA in H2O, 65%=“CAN.” The M4N standard was prepared by diluting 10.01 mg M4N in 100 mL of CAN, then sonicating for 5 min. (2002 ng/injection). The samples were prepared by adding 400 μL EtOH and sonicating for 2 min. or until complete dissolution was achieved. The injection volume for the samples was 100 μL.
The convenience and ease of oral administration, however, especially in the case of long-term post-surgical adjuvant treatment, would considerably facilitate drug administration to patients and would improve patient quality of life. Thus, in addition to i.p. and i.v. administration, the ability to systemically distribute M4N by oral administration was also investigated. In both short-term (<8 hours) feeding experiments and long-term (14 weeks) feeding experiments, M4N levels in various tissues and their in vivo toxicity was assessed. In short-term experiments, mice were fed 30 mg of M4N dissolved in castor oil (100 mg M4N/mL castor oil), and at 2, 4, and 8 hours post-feeding, the quantity of M4N present in various tissues was determined by HPLC.

[3] = system: refractory head and neck carcinomas; format: in vivo, human
Text: Eight male subjects and one […] participated. Mean weight was 139 lbs. (range 102 to 219 lbs.).

[4] = mouse, in vivo
Experimental: M4N Tissue Distribution Studies Using ^3H-M4N. Harlan ICR mice or C3 cell-induced tumor-bearing C57bl/6 mice were injected via tail vein or intraperitoneally with 100 μL of Cremaphor-ethanol based solvent containing 100 μCi of tritiated M4N and 60 mM of cold M4N. At the specified time post-injection, the mice were sacrificed, the organs and blood were collected, weighed, then dissolved overnight in 4 M guanidine isothiocyanate (GITC). The insoluble pellet was then further extracted with EtOH. Tritium content of both the GITC extract and the EtOH extract was measured on a Packard scintillation counter and the quantity of M4N in each organ was calculated based on the specific activity of the inoculum.
To determine the distribution of M4N in tissues over time following a single application, and also to assess the ability to deliver M4N to a distant tumor, six C3 cell-induced tumor bearing mice (A-F) were treated i.p. with ^3H-M4N as described above. At 4 hours, 6 hours, 18 hours, and 6 days post-injection, the quantities of ^3H-M4N in various tissues and the tumors were measured.

SMILES: COc1ccc(C[C@@H](C)[C@@H](C)Cc2ccc(OC)c(OC)c2)cc1OC [M4N, meso-1,4-bis(3,4-dimethoxyphenyl)-2,3-dimethylbutane]
- M4N detected in tissue ([1]; heart or blood, 3 hours post-injection): Little or no M4N
- M4N present in tissue ([1]; liver and fat, 3 hours post-injection): Significant quantities
- Toxicity of systemic i.p. and i.v. injection ([1]; mice, single injection): no apparent toxicity
- Quantity of M4N in each tissue ([2]; 2 hours post-feeding, 30 mg oral): < 2 ng per gram tissue
- M4N levels ([2]; 8 hours post-feeding): decreased in nearly all organs
- M4N (ng)/organ dry weight (g) ([2]; Bladder, 2 hours after oral 30 mg M4N in castor oil): 2.34 ng/g
- M4N (ng)/organ dry weight (g) ([2]; Bladder, 4 hours after oral 30 mg M4N in castor oil): 1.69 ng/g
- M4N (ng)/organ dry weight (g) ([2]; Bladder, 8 hours after oral 30 mg M4N in castor oil): 0 ng/g
- M4N (ng)/organ dry weight (g) ([2]; Blood, 2 hours after oral 30 mg M4N in castor oil): 0.5 ng/g
- M4N (ng)/organ dry weight (g) ([2]; Blood, 4 hours after oral 30 mg M4N in castor oil): 2.08 ng/g
- M4N (ng)/organ dry weight (g) ([2]; Blood, 8 hours after oral 30 mg M4N in castor oil): 0 ng/g
- M4N (ng)/organ dry weight (g) ([2]; Caecum, 2 hours after oral 30 mg M4N in castor oil): 1.11 ng/g
- M4N (ng)/organ dry weight (g) ([2]; Caecum, 4 hours after oral 30 mg M4N in castor oil): 4.38 ng/g
- M4N (ng)/organ dry weight (g) ([2]; Caecum, 8 hours after oral 30 mg M4N in castor oil): 6.55 ng/g
- M4N (ng)/organ dry weight (g) ([2]; Fat, 2 hours after oral 30 mg M4N in castor oil): 0.11 ng/g
- M4N (ng)/organ dry weight (g) ([2]; Fat, 4 hours after oral 30 mg M4N in castor oil): 0 ng/g
- M4N (ng)/organ dry weight (g) ([2]; Fat, 8 hours after oral 30 mg M4N in castor oil): 0 ng/g
- M4N (ng)/organ dry weight (g) ([2]; Heart, 2 hours after oral 30 mg M4N in castor oil): 0.83 ng/g
- M4N (ng)/organ dry weight (g) ([2]; Heart, 4 hours after oral 30 mg M4N in castor oil): 0.11 ng/g
- M4N (ng)/organ dry weight (g) ([2]; Heart, 8 hours after oral 30 mg M4N in castor oil): 1.16 ng/g
- M4N (ng)/organ dry weight (g) ([2]; Kidneys, 2 hours after oral 30 mg M4N in castor oil): 0.12 ng/g
- M4N (ng)/organ dry weight (g) ([2]; Kidneys, 4 hours after oral 30 mg M4N in castor oil): 0.61 ng/g
- M4N (ng)/organ dry weight (g) ([2]; Kidneys, 8 hours after oral 30 mg M4N in castor oil): 0 ng/g
- M4N (ng)/organ dry weight (g) ([2]; Lg. Intestine, 2 hours after oral 30 mg M4N in castor oil): 0.24 ng/g
- M4N (ng)/organ dry weight (g) ([2]; Lg. Intestine, 4 hours after oral 30 mg M4N in castor oil): 8.24 ng/g
- M4N (ng)/organ dry weight (g) ([2]; Lg. Intestine, 8 hours after oral 30 mg M4N in castor oil): 2.68 ng/g
- M4N (ng)/organ dry weight (g) ([2]; Liver, 2 hours after oral 30 mg M4N in castor oil): 0.05 ng/g
- M4N (ng)/organ dry weight (g) ([2]; Liver, 4 hours after oral 30 mg M4N in castor oil): 0.52 ng/g
- M4N (ng)/organ dry weight (g) ([2]; Liver, 8 hours after oral 30 mg M4N in castor oil): 0 ng/g
- M4N (ng)/organ dry weight (g) ([2]; Lungs, 2 hours after oral 30 mg M4N in castor oil): 0.43 ng/g
- M4N (ng)/organ dry weight (g) ([2]; Lungs, 4 hours after oral 30 mg M4N in castor oil): 0 ng/g
- M4N (ng)/organ dry weight (g) ([2]; Lungs, 8 hours after oral 30 mg M4N in castor oil): 2.7 ng/g
- M4N (ng)/organ dry weight (g) ([2]; Pancreas, 2 hours after oral 30 mg M4N in castor oil): 0.57 ng/g
- M4N (ng)/organ dry weight (g) ([2]; Pancreas, 4 hours after oral 30 mg M4N in castor oil): 24.69 ng/g
- M4N (ng)/organ dry weight (g) ([2]; Pancreas, 8 hours after oral 30 mg M4N in castor oil): 2.97 ng/g
- M4N (ng)/organ dry weight (g) ([2]; Seminal Vesicles, 2 hours after oral 30 mg M4N in castor oil): 0.21 ng/g
- M4N (ng)/organ dry weight (g) ([2]; Seminal Vesicles, 4 hours after oral 30 mg M4N in castor oil): 0.37 ng/g
- M4N (ng)/organ dry weight (g) ([2]; Seminal Vesicles, 8 hours after oral 30 mg M4N in castor oil): 0 ng/g
- M4N (ng)/organ dry weight (g) ([2]; Small Intestine, 2 hours after oral 30 mg M4N in castor oil): 0.09 ng/g
- M4N (ng)/organ dry weight (g) ([2]; Small Intestine, 4 hours after oral 30 mg M4N in castor oil): 8.42 ng/g
- M4N (ng)/organ dry weight (g) ([2]; Small Intestine, 8 hours after oral 30 mg M4N in castor oil): 5.53 ng/g
- M4N (ng)/organ dry weight (g) ([2]; Spleen, 2 hours after oral 30 mg M4N in castor oil): 1.1 ng/g
- M4N (ng)/organ dry weight (g) ([2]; Spleen, 4 hours after oral 30 mg M4N in castor oil): 0.16 ng/g
- M4N (ng)/organ dry weight (g) ([2]; Spleen, 8 hours after oral 30 mg M4N in castor oil): 0 ng/g
- M4N (ng)/organ dry weight (g) ([2]; Stomach, 2 hours after oral 30 mg M4N in castor oil): 0.23 ng/g
- M4N (ng)/organ dry weight (g) ([2]; Stomach, 4 hours after oral 30 mg M4N in castor oil): 45.03 ng/g
- M4N (ng)/organ dry weight (g) ([2]; Stomach, 8 hours after oral 30 mg M4N in castor oil): 33.9 ng/g
- M4N present in tissue ([2]; pancreas, 4 hours post-feeding): Significant quantities
- Time of peak M4N levels ([2]; post-feeding, single oral 30 mg): roughly 4 hours
- Damage to healthy tissue surrounding the tumor ([3]; in vivo): No damage
- Dose delivered without drug-related toxicity ([3]; in vivo): up to 495 mg weekly
- Other adverse events attributed to M4N ([3]; in vivo): No other adverse events
- Relation of SAEs to study medication ([3]; in vivo): unlikely or not related to study medication
- Serious Adverse Events reported ([3]; in vivo): 6
- Subjects with Serious Adverse Events ([3]; in vivo): 4 subjects
- Subjects with severe radiating pain on injection ([3]; in vivo): One
- Subjects with sporadic mild elevations in LFTs ([3]; in vivo): 2 subjects
- Subjects with drug related tumor necrosis after injection ([3]; of 6 subjects receiving three doses): 5 subjects
- Patients with radiologically confirmed tumor volume reduction ([3]; of the six patients completing three doses): three
- Efficacy in terms of induction of necrosis ([3]; patients that completed the treatment): over 80%
- M4N tissue levels relative to levels seen at 6 hours [4]: 5-10%
- M4N per gram of wet tumor ([4]; ip): 294 ng per gram of wet tumor
- Time of peak M4N tissue levels ([4]; ip): approximately 6 hours
